# Assay results published in ChEMBL document CHEMBL5137024, “Discovery of novel coumarin-indole derivatives as tubulin polymerization inhibitors with potent anti-gastric cancer activities” (Eur J Med Chem, 2022).
# Active and inactive are the calls of the source. The rule behind the calls is not given here.
# What was measured:
# HGC-27 [1] = assay: Induction of apoptosis in human HGC-27 cells assessed as increase in cleavage caspase 3 level; type: functional, cell-based; settings: dose 10-30 nM, DDE = dose-dependent effect
# MGC-803 [2] = assay: Downregulation of c-Myc expression in human MGC-803 cells incubated for 48 hrs; type: functional, cell-based; settings: dose 5-15 nM, DDE = dose-dependent effect
# [3] = Induction of mitochondria mediated intrinsic apoptosis in human HGC-27 cells assessed as early apoptotic cells at 20 nM measured after 48 hrs by flow cytometry analysis (Rvb= 6.4%); type: functional
# HGC-27 [4] = assay: Inhibition of p38 signalling pathway in human HGC-27 cells assessed as reduction in downstream substrate HSP-27 phosphorylation at 10 to 30 nM incubated for 48 hrs; type: cell-based; settings: dose 10-30 nM
# MGC-803 [5] = assay: Downregulation of phosphorylated Elk-1 expression in human MGC-803 cells incubated for 48 hrs; type: functional, cell-based; settings: dose 5-15 nM, DDE = dose-dependent effect
# Mus musculus = assay: Upregulation of phosphorylated Histone H3 expression in tumor tissue of BALB/c nude mouse xenografted with human MGC-803 cells at 15 to 30 mg/kg, ip administered once daily for 21 days by Western blotting analysis; type: functional, organism-based; settings: dose 15-30 mg/kg, time 21.0 day
# HGC-27 [6] = assay: Antiproliferative activity against human HGC-27 cells assessed as reduction in cell viability incubated for 12 to 48 hrs by MTT assay; type: functional, cell-based; settings: dose 15-30 nM, time 12-48 hrs, DDE = dose-dependent effect
# [7] = Induction of mitochondria mediated intrinsic apoptosis in human MGC-803 cells assessed as late apoptotic cells at 15 nM measured after 48 hrs by flow cytometry analysis (Rvb= 98.2%); type: functional
# MGC-803 [8] = assay: Induction of apoptosis in human MGC-803 cells assessed as upregulation of cleavage caspase 8 level; type: functional, cell-based; settings: dose 5-15 nM, DDE = dose-dependent effect
# MGC-803 [9] = assay: Downregulation of Wee1 expression in human MGC-803 cells at 5 to 15 nM incubated for 48 hrs; type: functional, cell-based; settings: dose 5-15 nM
# HGC-27 [10] = assay: Induction of apoptosis in human HGC-27 cells assessed as increase in cleavage caspase 7 level; type: functional, cell-based; settings: dose 10-30 nM, DDE = dose-dependent effect
# HGC-27 [11] = assay: Downregulation of phosphorylated Elk-1 expression in human HGC-27 cells incubated for 48 hrs; type: functional, cell-based; settings: dose 10-30 nM, DDE = dose-dependent effect
# [12] = Induction of mitochondria mediated intrinsic apoptosis in human MGC-803 cells assessed as early apoptotic cells at 10 nM measured after 48 hrs by flow cytometry analysis (Rvb= 1.6%); type: functional
# MGC-803 [13] = assay: Antiproliferative activity against human MGC-803 cells assessed as inhibition of cell growth at 5 to 15 nM incubated for 60 hrs; type: functional, cell-based; settings: dose 5-15 nM
# Tubulin (Sus scrofa) = Tubulin (Sus scrofa) (UniProt P02554+P02550); assay: Inhibition of porcine brain tubulin polymerization assessed as reduction in tubulin polymerization level by measuring relative fluorescence intensity at 3 umol/l by fluorescence based assay; type: tissue-based; settings: dose 3.0 µmol/L
# Chain of Tubulin (Sus scrofa) (P02550 whole entry, looked up): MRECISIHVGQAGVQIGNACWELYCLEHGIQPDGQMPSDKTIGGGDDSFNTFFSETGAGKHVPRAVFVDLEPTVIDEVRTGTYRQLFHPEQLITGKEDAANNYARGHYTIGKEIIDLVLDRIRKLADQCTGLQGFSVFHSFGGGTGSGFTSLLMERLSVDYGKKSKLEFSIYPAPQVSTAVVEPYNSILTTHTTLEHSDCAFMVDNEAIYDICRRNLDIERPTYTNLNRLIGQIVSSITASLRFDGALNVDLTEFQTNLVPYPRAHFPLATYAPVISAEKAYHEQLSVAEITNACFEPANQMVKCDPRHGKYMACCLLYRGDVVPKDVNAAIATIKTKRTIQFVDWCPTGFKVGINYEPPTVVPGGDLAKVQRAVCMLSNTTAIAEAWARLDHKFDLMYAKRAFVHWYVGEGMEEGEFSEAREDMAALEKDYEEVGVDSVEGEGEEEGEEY
# Chain of Tubulin (Sus scrofa) (P02554 whole entry, looked up): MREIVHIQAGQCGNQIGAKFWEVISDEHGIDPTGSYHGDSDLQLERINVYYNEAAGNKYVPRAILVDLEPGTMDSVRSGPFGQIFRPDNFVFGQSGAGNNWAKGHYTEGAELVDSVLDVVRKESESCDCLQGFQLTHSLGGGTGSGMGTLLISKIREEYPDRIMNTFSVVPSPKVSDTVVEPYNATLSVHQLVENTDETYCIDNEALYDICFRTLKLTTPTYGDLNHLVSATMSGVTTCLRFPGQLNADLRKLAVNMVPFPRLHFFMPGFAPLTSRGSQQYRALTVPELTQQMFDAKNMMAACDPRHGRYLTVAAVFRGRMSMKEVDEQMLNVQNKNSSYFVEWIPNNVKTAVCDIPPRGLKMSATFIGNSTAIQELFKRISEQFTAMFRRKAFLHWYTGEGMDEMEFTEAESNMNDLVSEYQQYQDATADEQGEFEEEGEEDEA
# MGC-803 [14] = assay: Antitumor activity against human MGC-803 cells xenografted BALB/c nude mouse assessed as tumor growth inhibition at 15 mg/kg, ip administered once daily for 21 days; type: functional; settings: MGC-803, 504 h, time 21 day, read-out: TGI
# HGC-27 [15] = assay: Antiproliferative activity against human HGC-27 cells assessed as reduction in cell viability incubated for 48 hrs by MTT assay; type: functional, cell-based; settings: HGC-27, 48 h
# HCT-116 = assay: cells; settings: Homo sapiens, HCT-116, 48 h
# MGC-803 [16] = assay: Induction of apoptosis in human MGC-803 cells assessed as increase in Noxa level; type: functional, cell-based; settings: dose 5-15 nM, DDE = dose-dependent effect
# MGC-803 [17] = assay: Inhibition of p38 signalling pathway in human MGC-803 cells assessed as reduction in p38 phosphorylation at 5 to 15 nM incubated for 48 hrs; type: cell-based; settings: dose 5-15 nM
# MGC-803 [18] = assay: Antitumor activity against human MGC-803 cells xenografted BALB/c nude mouse assessed as tumor growth inhibition at 30 mg/kg, ip administered once daily for 21 days; type: functional; settings: MGC-803, 504 h, time 21 day, read-out: TGI
# MGC-803 [19] = assay: Induction of cell cycle arrest in human MGC-803 cells assessed as accumulation of cells at G2/M phase at 15 nM incubated for 48 hrs by propidium iodide staining based flow cytometry analysis (reference value: 24%); type: functional
# [20] = Toxicity in BALB/c nude mouse xenografted with human MGC-803 cells assessed as pathological changes in lung at 15 to 30 mg/kg, ip administered once daily for 21 days by Hematoxyin-eosin staining based analysis; type: organism-based; settings: in vivo, 504 h, dose 15-30 mg/kg, time 21 day
# MGC-803 [21] = assay: Inhibition of ERK signalling pathway in human MGC-803 cells assessed as reduction in downstream substrate p90RSK phosphorylation at 5 to 15 nM incubated for 48 hrs; type: cell-based; settings: dose 5-15 nM
# HGC-27 [22] = assay: Inhibition of colony formation in human HGC-27 cells incubated for 7 days by crystal violet staining based analysis; type: functional, cell-based; settings: dose 3-15 nM, time 7.0 day, DDE = dose-dependent effect
# [23] = Cytotoxicity against human GES1 cells assessed as reduction in cell viability incubated for 48 hrs by MTT assay; type: toxicity, cell-based
# HGC-27 [24] = assay: Induction of apoptosis in human HGC-27 cells assessed as nuclear concentration at 10 to 30 nM incubated for 48 hrs by DAPI staining based analysis; type: functional, cell-based; settings: dose 10-30 nM
# HGC-27 [25] = assay: Induction of apoptosis in human HGC-27 cells assessed as decrease in cell density at 10 to 30 nM incubated for 48 hrs by bright field imaging analysis; type: functional, cell-based; settings: dose 10-30 nM
# HGC-27 [26] = assay: Upregulation of phosphorylated Histone H3 expression in human HGC-27 cells at 10 to 30 nM incubated for 48 hrs; type: functional, cell-based; settings: dose 10-30 nM
# [27] = Toxicity in BALB/c nude mouse xenografted with human MGC-803 cells assessed as effect on body weight at 15 to 30 mg/kg, ip administered once daily for 21 days; type: organism-based; settings: in vivo, 504 h, dose 15-30 mg/kg, time 21 day
# [28] = Induction of mitochondria mediated intrinsic apoptosis in human HGC-27 cells assessed as late apoptotic cells at 20 nM measured after 48 hrs by flow cytometry analysis (reference value: 93.6%); type: functional
# Tubulin (Homo sapiens) = Tubulin (Homo sapiens) (UniProt P68371+Q9H4B7+P0DPH7+P68366+Q13509+Q71U36+P04350+Q3ZCM7+P07437+P68363+Q9BQE3+Q6PEY2+Q13885+Q9BVA1+Q9BUF5); assay: Disruption of microtubule network in human MGC-803 cells assessed as incomplete mitosis at 5 to 15 nM measured after 48 hrs by DAPI staining based fluorescence microscopic analysis; type: cell-based; settings: dose 5-15 nM
# [29] = Induction of mitochondria mediated intrinsic apoptosis in human MGC-803 cells assessed as late apoptotic cells at 5 nM measured after 48 hrs by flow cytometry analysis (Rvb= […]); type: functional
# [30] = Toxicity in BALB/c nude mouse xenografted with human MGC-803 cells assessed as pathological changes in kidney at 15 to 30 mg/kg, ip administered once daily for 21 days by Hematoxyin-eosin staining based analysis; type: organism-based; settings: in vivo, 504 h, dose 15-30 mg/kg, time 21 day
# HGC-27 [31] = assay: Downregulation of cyclin B1 expression in human HGC-27 cells at 10 to 30 nM incubated for 48 hrs; type: functional, cell-based; settings: dose 10-30 nM
# MGC-803 [32] = assay: Induction of DNA damage in human MGC-803 cells by comet assay; type: functional, cell-based; settings: dose 5-15 nM, DDE = dose-dependent effect
# MGC-803 [33] = assay: Inhibition of p38 signalling pathway in human MGC-803 cells assessed as reduction in downstream substrate MAPKAPK2 phosphorylation at 5 to 15 nM incubated for 48 hrs; type: cell-based; settings: dose 5-15 nM
smiles,measurement,setting,value
CN(c1ccc2c(ccn2C)c1)c1cc(=O)oc2ccccc12,Activity,HGC-27 [1],Dde
same,Activity,MGC-803 [2],Dde
same,Activity,[3],21.6%
same,inhibition,HGC-27 [4],Active
same,Activity,MGC-803 [5],Dde
same,Activity,Mus musculus,Active
same,Activity,HGC-27 [6],Dde
same,Activity,[7],75.2%
same,Activity,MGC-803 [8],Dde
same,Activity,MGC-803 [9],Active
same,Activity,HGC-27 [10],Dde
same,Activity,HGC-27 [11],Dde
same,Activity,[12],7.2%
same,inhibition,MGC-803 [13],Active
same,inhibition,Tubulin (Sus scrofa),Active
same,inhibition in vivo at 15 mg/kg,MGC-803 [14],70%
same,IC50,HGC-27 [15],23.8 nM
same,IC50,HCT-116,33 nM
same,Activity,MGC-803 [16],Dde
same,inhibition,MGC-803 [17],Active
same,inhibition in vivo at 30 mg/kg,MGC-803 [18],80%
same,Activity,MGC-803 [19],53%
same,Activity,[20],Non-Toxic
same,inhibition,MGC-803 [21],Active
same,inhibition,HGC-27 [22],Dde
same,IC50 at 48 h,[23],3170 nM
same,Activity,HGC-27 [24],Active
same,Activity,HGC-27 [25],Active
same,Activity,HGC-27 [26],Active
same,Activity,[27],Non-Toxic
same,Activity,[28],78.3%
same,Activity,Tubulin (Homo sapiens),Active
same,Activity,[29],98.1%
same,Activity,[30],Non-Toxic
same,Activity,HGC-27 [31],Active
same,Activity,MGC-803 [32],Dde
same,inhibition,MGC-803 [33],Active
